In patent publication US9131697B2, “Spirocyclic isoxazolines as antiparasitic agents” (Zoetis Services LLC, priority 2012, dated 2015):

Columns and labels:
[1] = tested on: Ctenocephalides felis; test: Flea (Ctenocephalides felis) Membrane Feed Assay-Adult; conditions: adult fleas fed on treated citrated bovine blood, knockdown and/or death at 24 hours, lowest dose causing mortality ≥50%, read-out: Minimum Effective Concentration (MEC)
Procedure: Flea (Ctenocephalides felis) Membrane Feed Assay-Adult
Compounds of the present invention were dissolved in DMSO and aliquots added to citrated bovine blood in membrane covered wells pre-warmed to 37° C. Adult fleas were newly emerged (3-7 days) and unfed. Feeding wells containing approximately 10 adult fleas were placed onto the treated blood wells, and the fleas were allowed to feed on the treated blood for 24 hours. […] Each compound was tested at half-log intervals, and endpoint data was recorded as Minimum Effective Concentration (MEC) in μM. MEC is a subjective visual assessment of organism viability, and is the lowest dose observed to cause mortality≧50%.

[2] = tested on: Ornithidorus turicata; test: Soft Tick (Ornithidorus turicata) Blood Feed Assay; conditions: nymphs fed on treated citrated bovine blood; knockdown and/or death at 24 and 72 hours
Procedure: Soft Tick (Ornithidorus turicata) Blood Feed Assay
Compounds were dissolved in DMSO and aliquots were added to citrated bovine blood in membrane covered wells warmed to 37° C. 5 nymphs were placed on the membrane, allowed to feed to repleation, and were placed in observation wells. […] Endpoint results for subjective visual assessment of organism viability were recorded as LD100 (the lowest dose to cause 100% mortality).

[3] = tested on: Aedes aeqypti; test: Mosquito (Aedes aeqypti) Larval Assay - 1st Instar Larvae; conditions: first instar larvae, 25° C., motility at 24 hours, lowest dose to inhibit motility ≥50% of untreated controls, read-out: Minimum Effective Concentration (MEC)
Procedure: Mosquito (Aedes aeqypti) Larval Assay—1st Instar Larvae
Compounds were dissolved in DMSO and aliquots were spotted to empty wells. First instar larvae and maintenance media were added to the wells to obtain between 8 and 12 larvae per well in the appropriate final assay volume. Larvae were incubated in the treated media at 25° C. for 24 hours. Mosquito larvae motility was measured at 24 hours. Each compound was tested at half-log intervals, and endpoint results were recorded as Minimum Effective Concentration (MEC) in μM. MEC is an objective assessment of organism motility, and is the lowest dose to inhibit motility≧50% of untreated controls.

With `CS(=O)(=O)CC(=O)N1CC2(C1)OCc1cc(C3=NOC(c4cc(Cl)cc(Cl)c4)(C(F)(F)F)C3)cnc12` (stereo not drawn) [Example 1, 3′-[5-(3,5-dichlorophenyl)-5-(trifluoromethyl)-4,5-dihydroisoxazol-3-yl]-1-[(methylsulfonyl)acetyl]-5′H-spiro[azetidin-3,7′-furo[3,4,b]pyridine]] the minimal effective concentration [1] was 3 µM, the “LD100 (the lowest dose to cause 100% mortality)” value [2] was 0.1 µg/mL and the minimal effective concentration [3] was 0.1 µM.
For `CS(=O)(=O)CC(=O)N1CC2(C1)OCc1cc(C3=NOC(c4cc(Cl)c(F)c(Cl)c4)(C(F)(F)F)C3)cnc12` (stereo not drawn) [Example 2, 3′-[5-(3,5-dichloro-4-fluorophenyl)-5-(trifluoromethyl)-4,5-dihydroisoxazol-3-yl]-1-[(methylsulfonyl)acetyl]-5′H-spiro[azetidin-3,7-furo[3,4,b]pyridine]], the minimal effective concentration [1] was 1 µM, the “LD100 (the lowest dose to cause 100% mortality)” value [2] was 0.3 µg/mL and the minimal effective concentration [3] was 0.03 µM.
`CS(=O)(=O)CC(=O)N1CC2(C1)OCc1cc(C3=NOC(c4cc(Cl)c(Cl)c(Cl)c4)(C(F)(F)F)C3)cnc12` (stereo not drawn) [Example 3, 1-[(methylsulfonyl)acetyl]-3′-[5-(3,4,5-trichlorophenyl)-5-(trifluoromethyl)-4,5-dihydroisoxazol-3-yl]-5′H-spiro[azetidin-3,7′-furo[3,4,b]pyridine]] was tested, and the minimal effective concentration [1] was 1 µM, the “LD100 (the lowest dose to cause 100% mortality)” value [2] was 0.3 µg/mL and the minimal effective concentration [3] was 0.03 µM.
In the case of `CC(C)C(=O)N1CC2(C1)OCc1cc(C3=NOC(c4cc(Cl)c(F)c(Cl)c4)(C(F)(F)F)C3)cnc12` (stereo not drawn) [Example 4, 3′-[5-(3,5-dichloro-4-fluorophenyl)-5-(trifluoromethyl)-4,5-dihydroisoxazol-3-yl]-1-isobutyryl-5′ H-spiro[azetidin-3,7′-furo[3,4,b]pyridine]], the minimal effective concentration [1] is reported as 0.1 µM, the “LD100 (the lowest dose to cause 100% mortality)” value [2] is reported as 0.03 µg/mL and the minimal effective concentration [3] is reported as 0.01 µM.
With `CC(C)C(=O)N1CC2(C1)OCc1cc(C3=NOC(c4cc(Cl)cc(Cl)c4)(C(F)(F)F)C3)cnc12` (stereo not drawn) [Example 5, 3′-[5-(3,5-dichlorophenyl)-5-(trifluoromethyl)-4,5-dihydroisoxazol-3-yl]-1-isobutyryl-5′H-spiro[azetidin-3,7′-furo[3,4,b]pyridine]] the minimal effective concentration [1] was 1 µM, the “LD100 (the lowest dose to cause 100% mortality)” value [2] was 0.03 µg/mL and the minimal effective concentration [3] was 0.03 µM.
In the case of `CC(C)C(=O)N1CC2(C1)OCc1cc(C3=NOC(c4cc(Cl)c(Cl)c(Cl)c4)(C(F)(F)F)C3)cnc12` (stereo not drawn) [Example 6, 1-isobutyryl-3′-[5-(3,4,5-trichlorophenyl)-5-(trifluoromethyl)-4,5-dihydroisoxazol-3-yl]-5′H-spiro[azetidin-3,7′-furo[3,4,b]pyridine]], the minimal effective concentration [1] is reported as 1 µM, the “LD100 (the lowest dose to cause 100% mortality)” value [2] is reported as 0.03 µg/mL and the minimal effective concentration [3] is reported as 0.01 µM.
In the case of `CS(=O)(=O)CC(=O)N1CC2(C1)OCc1nc(C3=NOC(c4cc(Cl)c(F)c(Cl)c4)(C(F)(F)F)C3)ccc12` (stereo not drawn) [Example 7, 1-(2′-(5-(3,5-dichloro-4-fluorophenyl)-5-(trifluoromethyl)-4,5-dihydroisoxazol-3-yl)-7′H-spiro[azetidine-3,5′-furo[3,4-b]pyridine]-1-yl)-2-(methylsulfonyl)ethanone], the minimal effective concentration [3] is reported as 0.3 µM.
For `CS(=O)(=O)CC(=O)N1CC2(C1)OCc1nc(C3=NOC(c4cc(Cl)cc(Cl)c4)(C(F)(F)F)C3)ccc12` (stereo not drawn) [Example 8, 1-(2′-(5-(3,5-dichlorophenyl)-5-(trifluoromethyl)-4,5-dihydroisoxazol-3-yl)-7′H-spiro[azetidine-3,5′-furo[3,4-b]pyridine]-1-yl)-2-(methylsulfonyl)ethanone], the minimal effective concentration [3] was 0.3 µM.
For `CS(=O)(=O)CC(=O)N1CC2(C1)OCc1nc(C3=NOC(c4cc(Cl)c(Cl)c(Cl)c4)(C(F)(F)F)C3)ccc12` (stereo not drawn) [Example 9, 2-(methylsulfonyl)-1-(2′-(5-(3,4,5-trichlorophenyl)-5-(trifluoromethyl)-4,5-dihydroisoxazol-3-yl)-7′H-spiro[azetidine-3,5′-furo[3,4-b]pyridine]-1-yl)ethanone], the minimal effective concentration [3] was 0.3 µM.
With `CC(C)C(=O)N1CC2(C1)OCc1nc(C3=NOC(c4cc(Cl)c(F)c(Cl)c4)(C(F)(F)F)C3)ccc12` (stereo not drawn) [Example 10, 1-(2′-(5-(3,5-dichloro-4-fluorophenyl)-5-(trifluoromethyl)-4,5-dihydroisoxazol-3-yl)-7′H-spiro[azetidine-3,5′-furo[3,4-b]pyridine]-1-yl)-2-methylpropan-1-one] the minimal effective concentration [1] was 3 µM, the “LD100 (the lowest dose to cause 100% mortality)” value [2] was 0.1 µg/mL and the minimal effective concentration [3] was 0.03 µM.
For `CC(C)C(=O)N1CC2(C1)OCc1nc(C3=NOC(c4cc(Cl)cc(Cl)c4)(C(F)(F)F)C3)ccc12` (stereo not drawn) [Example 11, 1-(2′-(5-(3,5-dichlorophenyl)-5-(trifluoromethyl)-4,5-dihydroisoxazol-3-yl)-7′H-spiro[azetidine-3,5′-furo[3,4-b]pyridine]-1-yl)-2-methylpropan-1-one], the “LD100 (the lowest dose to cause 100% mortality)” value [2] was 0.3 µg/mL and the minimal effective concentration [3] was 0.3 µM.
With `CC(C)C(=O)N1CC2(C1)OCc1nc(C3=NOC(c4cc(Cl)c(Cl)c(Cl)c4)(C(F)(F)F)C3)ccc12` (stereo not drawn) [Example 12, 2-methyl-1-(2′-(5-(3,4,5-trichlorophenyl)-5-(trifluoromethyl)-4,5-dihydroisoxazol-3-yl)-7′H-spiro[azetidine-3,5′-furo[3,4-b]pyridine]-1-yl)propan-1-one] the “LD100 (the lowest dose to cause 100% mortality)” value [2] was 0.3 µg/mL and the minimal effective concentration [3] was 0.1 µM.
For `CS(=O)(=O)CC(=O)N1CC2(C1)OCc1cc(C3=NOC(c4cc(Cl)c(F)c(Cl)c4)(C(F)(F)F)C3)ncc12` (stereo not drawn) [Example 13, 1-(6′-(5-(3,5-dichloro-4-fluorophenyl)-5-(trifluoromethyl)-4,5-di hydroisoxazol-3-yl)-1′H-spiro[azetidine-3,3′-furo[3,4-c]pyridine]-1-yl)-2-(methylsulfonyl)ethanone], the minimal effective concentration [1] was 1 µM, the “LD100 (the lowest dose to cause 100% mortality)” value [2] was 0.1 µg/mL and the minimal effective concentration [3] was 0.01 µM.
In the case of `CS(=O)(=O)CC(=O)N1CC2(C1)OCc1cc(C3=NOC(c4cc(Cl)c(Cl)c(Cl)c4)(C(F)(F)F)C3)ncc12` (stereo not drawn) [Example 14, 2-(methylsulfonyl)-1-(6′-(5-(3,4,5-trichlorophenyl)-5-(trifluoromethyl)-4,5-dihydroisoxazol-3-yl)-1′H-spiro[azetidine-3,3′-furo[3,4-c]pyridine]-1-yl)ethanone], the minimal effective concentration [1] is reported as 1 µM, the “LD100 (the lowest dose to cause 100% mortality)” value [2] is reported as 0.3 µg/mL and the minimal effective concentration [3] is reported as 0.01 µM.
Compound `CS(=O)(=O)CC(=O)N1CC2(C1)OCc1cc(C3=NOC(c4cc(Cl)cc(Cl)c4)(C(F)(F)F)C3)ncc12` (stereo not drawn) [Example 15, 1-(6′-(5-(3,5-dichlorophenyl)-5-(trifluoromethyl)-4,5-dihydroisoxazol-3-yl)-1′H-spiro[azetidine-3,3′-furo[3,4-c]pyridine]-1-yl)-2-(methylsulfonyl)ethanone] has a minimal effective concentration [1] of 3 µM and a minimal effective concentration [3] of 0.03 µM.
With `CC(C)C(=O)N1CC2(C1)OCc1cc(C3=NOC(c4cc(Cl)c(F)c(Cl)c4)(C(F)(F)F)C3)ncc12` (stereo not drawn) [Example 16, 1-(6′-(5-(3,5-dichloro-4-fluorophenyl)-5-(trifluoromethyl)-4,5-dihydroisoxazol-3-yl)-1′H-spiro[azetidine-3,3′-furo[3,4-c]pyridine]-1-yl)-2-methylpropan-1-one] the minimal effective concentration [1] was 0.1 µM, the “LD100 (the lowest dose to cause 100% mortality)” value [2] was 0.03 µg/mL and the minimal effective concentration [3] was 0.001 µM.
In the case of `CC(C)C(=O)N1CC2(C1)OCc1cc(C3=NOC(c4cc(Cl)c(Cl)c(Cl)c4)(C(F)(F)F)C3)ncc12` (stereo not drawn) [Example 17, 2-methyl-1-(6′-(5-(3,4,5-trichlorophenyl)-5-(trifluoromethyl)-4,5-dihydroisoxazol-3-yl)-1′H-spiro[azetidine-3,3′-furo[3,4-c]pyridine]-1-yl)propan-1-one], the minimal effective concentration [1] is reported as 0.1 µM, the “LD100 (the lowest dose to cause 100% mortality)” value [2] is reported as 0.03 µg/mL and the minimal effective concentration [3] is reported as 0.01 µM.
For `CC(C)C(=O)N1CC2(C1)OCc1cc(C3=NOC(c4cc(Cl)cc(Cl)c4)(C(F)(F)F)C3)ncc12` (stereo not drawn) [Example 18, 1-(6′-(5-(3,5-dichlorophenyl)-5-(trifluoromethyl)-4,5-dihydroisoxazol-3-yl)-1′H-spiro[azetidine-3,3′-furo[3,4-c]pyridine]-1-yl)-2-methylpropan-1-one], the minimal effective concentration [1] was 0.3 µM, the “LD100 (the lowest dose to cause 100% mortality)” value [2] was 0.03 µg/mL and the minimal effective concentration [3] was 0.01 µM.
